Measurements reported in PubChem BioAssay (NCI).
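Growth conditions: 96-well plates. Treatment: test compound, 48 hours, 5 concentrations. Analysis: linear interpolation between bracketing concentrations; unreached endpoints set to highest concentration. At the GI50, growth is halved. At the TGI there is no net growth.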

Assays:
Test in all cases: DTP human tumour cell line panel, 48 h
[1] = system: 786-0 renal
[2] = system: A549 NSCLC
[3] = system: ACHN renal
[4] = system: BT-549 breast
[5] = system: CAKI-1 renal
[6] = system: CCRF-CEM leukemia
[7] = system: COLO 205 colon
[8] = system: DU-145 prostate
[9] = system: EKVX NSCLC
[10] = system: HCC-2998 colon
[11] = system: HCT-116 colon
[12] = system: HCT-15 colon
[13] = system: HL-60(TB) leukemia
[14] = system: HOP-62 NSCLC
[15] = system: HOP-92 NSCLC
[16] = system: HS 578T breast
[17] = system: HT29 colon
[18] = system: IGROV1 ovarian
[19] = system: K-562 leukemia
[20] = system: KM12 colon
[21] = system: LOX IMVI melanoma
[22] = system: M14 melanoma
[23] = system: MALME-3M melanoma
[24] = system: MCF7 breast
[25] = system: MDA-MB-231 breast
[26] = system: MDA-MB-435
[27] = system: MDA-N
[28] = system: MOLT-4 leukemia
[29] = system: NCI-H226 lung
[30] = system: NCI-H23 lung
[31] = system: NCI-H460 lung
[32] = system: NCI-H522 lung
[33] = system: NCI/ADR-RES ovarian
[34] = system: OVCAR-3 ovarian
[35] = system: OVCAR-4 ovarian
[36] = system: OVCAR-5 ovarian
[37] = system: OVCAR-8 ovarian
[38] = system: PC-3 prostate
[39] = system: RPMI-8226 leukemia
[40] = system: RXF 393 renal
[41] = system: SF-268 CNS
[42] = system: SF-295 CNS
[43] = system: SF-539 CNS
[44] = system: SK-MEL-2 melanoma
[45] = system: SK-MEL-28 melanoma
[46] = system: SK-MEL-5 melanoma
[47] = system: SK-OV-3 ovarian
[48] = system: SN12C renal
[49] = system: SNB-19 CNS
[50] = system: SNB-75 CNS
[51] = system: SR leukemia
[52] = system: SW-620 colon
[53] = system: T-47D breast
[54] = system: TK-10 renal
[55] = system: U251 CNS
[56] = system: UACC-257 melanoma
[57] = system: UACC-62 melanoma
[58] = system: UO-31 renal
[59] = system: A498 renal

Compound: [Cl][Cu][Cl]
- GI50 [1]: > 10 µM
- TGI [1]: > 10 µM
- GI50 [2]: > 10 µM
- TGI [2]: > 10 µM
- GI50 [3]: > 10 µM
- TGI [3]: > 10 µM
- GI50 [4]: > 10 µM
- TGI [4]: > 10 µM
- GI50 [5]: > 10 µM
- TGI [5]: > 10 µM
- GI50 [6]: > 10 µM
- TGI [6]: > 10 µM
- GI50 [7]: > 10 µM
- TGI [7]: > 10 µM
- GI50 [8]: > 10 µM
- TGI [8]: > 10 µM
- GI50 [9]: > 10 µM
- TGI [9]: > 10 µM
- GI50 [10]: > 10 µM
- TGI [10]: > 10 µM
- GI50 [11]: > 10 µM
- TGI [11]: > 10 µM
- GI50 [12]: > 10 µM
- TGI [12]: > 10 µM
- GI50 [13]: > 10 µM
- TGI [13]: > 10 µM
- GI50 [14]: > 10 µM
- TGI [14]: > 10 µM
- GI50 [15]: > 10 µM
- TGI [15]: > 10 µM
- GI50 [16]: > 10 µM
- TGI [16]: > 10 µM
- GI50 [17]: > 10 µM
- TGI [17]: > 10 µM
- GI50 [18]: > 10 µM
- TGI [18]: > 10 µM
- GI50 [19]: > 10 µM
- TGI [19]: > 10 µM
- GI50 [20]: > 10 µM
- TGI [20]: > 10 µM
- GI50 [21]: > 10 µM
- TGI [21]: > 10 µM
- GI50 [22]: > 10 µM
- TGI [22]: > 10 µM
- GI50 [23]: > 10 µM
- TGI [23]: > 10 µM
- GI50 [24]: > 10 µM
- TGI [24]: > 10 µM
- GI50 [25]: > 10 µM
- TGI [25]: > 10 µM
- GI50 [26]: > 10 µM
- TGI [26]: > 10 µM
- GI50 [27]: > 10 µM
- TGI [27]: > 10 µM
- GI50 [28]: > 10 µM
- TGI [28]: > 10 µM
- GI50 [29]: > 10 µM
- TGI [29]: > 10 µM
- GI50 [30]: > 10 µM
- TGI [30]: > 10 µM
- GI50 [31]: > 10 µM
- TGI [31]: > 10 µM
- GI50 [32]: > 10 µM
- TGI [32]: > 10 µM
- GI50 [33]: > 10 µM
- TGI [33]: > 10 µM
- GI50 [34]: > 10 µM
- TGI [34]: > 10 µM
- GI50 [35]: > 10 µM
- TGI [35]: > 10 µM
- GI50 [36]: > 10 µM
- TGI [36]: > 10 µM
- GI50 [37]: > 10 µM
- TGI [37]: > 10 µM
- GI50 [38]: > 10 µM
- TGI [38]: > 10 µM
- GI50 [39]: > 10 µM
- TGI [39]: > 10 µM
- GI50 [40]: > 10 µM
- TGI [40]: > 10 µM
- GI50 [41]: > 10 µM
- TGI [41]: > 10 µM
- GI50 [42]: 3.6 µM
- TGI [42]: > 10 µM
- GI50 [43]: > 10 µM
- TGI [43]: > 10 µM
- GI50 [44]: > 10 µM
- TGI [44]: > 10 µM
- GI50 [45]: > 10 µM
- TGI [45]: > 10 µM
- GI50 [46]: > 10 µM
- TGI [46]: > 10 µM
- GI50 [47]: > 10 µM
- TGI [47]: > 10 µM
- GI50 [48]: > 10 µM
- TGI [48]: > 10 µM
- GI50 [49]: > 10 µM
- TGI [49]: > 10 µM
- GI50 [50]: > 10 µM
- TGI [50]: > 10 µM
- GI50 [51]: > 10 µM
- TGI [51]: > 10 µM
- GI50 [52]: > 10 µM
- TGI [52]: > 10 µM
- GI50 [53]: > 10 µM
- TGI [53]: > 10 µM
- GI50 [54]: > 10 µM
- TGI [54]: > 10 µM
- GI50 [55]: > 10 µM
- TGI [55]: > 10 µM
- GI50 [56]: > 10 µM
- TGI [56]: > 10 µM
- GI50 [57]: > 10 µM
- TGI [57]: > 10 µM
- GI50 [58]: > 10 µM
- TGI [58]: > 10 µM

Compound: COc1ccc(-n2c(C)nc3ccc(NC4OC(CO)C(O)C(O)C4O)cc3c2=O)cc1 (stereo not given)
- TGI [1]: > 100 µM
- TGI [59]: > 100 µM
- TGI [3]: > 100 µM
- TGI [4]: > 100 µM
- TGI [5]: > 100 µM
- TGI [7]: > 100 µM
- TGI [8]: > 100 µM
- TGI [9]: > 100 µM
- TGI [10]: > 100 µM
- TGI [11]: > 100 µM
- TGI [12]: > 100 µM
- TGI [13]: > 100 µM
- TGI [14]: > 100 µM
- TGI [16]: > 100 µM
- TGI [17]: > 100 µM
- TGI [18]: > 100 µM
- TGI [19]: > 100 µM
- TGI [20]: > 100 µM
- TGI [21]: > 100 µM
- TGI [23]: > 100 µM
- TGI [24]: > 100 µM
- TGI [25]: > 100 µM
- TGI [26]: > 100 µM
- TGI [27]: > 100 µM
- TGI [28]: > 100 µM
- TGI [29]: > 100 µM
- TGI [30]: > 100 µM
- TGI [31]: > 100 µM
- TGI [32]: > 100 µM
- TGI [33]: > 100 µM
- TGI [34]: > 100 µM
- TGI [35]: > 100 µM
- TGI [36]: > 100 µM
- TGI [37]: > 100 µM
- TGI [38]: > 100 µM
- TGI [39]: > 100 µM
- TGI [40]: > 100 µM
- TGI [41]: > 100 µM
- TGI [42]: > 100 µM
- TGI [44]: > 100 µM
- TGI [45]: > 100 µM
- TGI [46]: > 100 µM
- TGI [48]: > 100 µM
- TGI [49]: > 100 µM
- TGI [50]: > 100 µM
- TGI [51]: > 100 µM
- TGI [52]: > 100 µM
- TGI [53]: > 100 µM
- TGI [54]: > 100 µM
- TGI [55]: > 100 µM
- TGI [56]: > 100 µM
- TGI [57]: > 100 µM
- TGI [58]: > 100 µM

Compound: C/C(N)=N/OCc1nc(C)no1
- TGI [1]: > 100 µM
- TGI [2]: > 100 µM
- TGI [3]: > 100 µM
- TGI [4]: > 100 µM
- TGI [5]: > 100 µM
- TGI [6]: > 100 µM
- TGI [7]: > 100 µM
- TGI [8]: > 100 µM
- TGI [9]: > 100 µM
- TGI [10]: > 100 µM
- TGI [11]: > 100 µM
- TGI [12]: > 100 µM
- TGI [13]: > 100 µM
- TGI [14]: > 100 µM
- TGI [16]: > 100 µM
- TGI [17]: > 100 µM
- TGI [19]: > 100 µM
- TGI [20]: > 100 µM
- TGI [22]: > 100 µM
- TGI [24]: > 100 µM
- TGI [25]: > 100 µM
- TGI [26]: > 100 µM
- TGI [27]: > 100 µM
- TGI [28]: > 100 µM
- TGI [30]: > 100 µM
- TGI [31]: > 100 µM
- TGI [32]: > 100 µM
- TGI [33]: > 100 µM
- TGI [34]: > 100 µM
- TGI [35]: > 100 µM
- TGI [37]: > 100 µM
- TGI [38]: > 100 µM
- TGI [39]: > 100 µM
- TGI [40]: > 100 µM
- TGI [41]: > 100 µM
- TGI [42]: > 100 µM
- TGI [43]: > 100 µM
- TGI [45]: > 100 µM
- TGI [46]: > 100 µM
- TGI [47]: > 100 µM
- TGI [48]: > 100 µM
- TGI [49]: > 100 µM
- TGI [50]: > 100 µM
- TGI [51]: > 100 µM
- TGI [52]: > 100 µM
- TGI [53]: > 100 µM
- TGI [54]: > 100 µM
- TGI [55]: > 100 µM
- TGI [56]: > 100 µM
- TGI [57]: > 100 µM
- TGI [58]: > 100 µM
